# Assay results from patent US20230295197A1, “STAT5 and STAT6 Degraders and Uses Thereof” (REGENTS OF THE UNIVERSITY OF MICHICAN, priority 2022, published 2023).
# Like-named read-outs stand apart in the source and are kept apart here.
# Target: T1, STAT6 (Homo sapiens, UniProt P42226)
# T1 construct: endogenous in cells; host or cells: MOLM-16, KU-812, SKNO1, MB231, L1236
# T1 sequence (P42226 1-847): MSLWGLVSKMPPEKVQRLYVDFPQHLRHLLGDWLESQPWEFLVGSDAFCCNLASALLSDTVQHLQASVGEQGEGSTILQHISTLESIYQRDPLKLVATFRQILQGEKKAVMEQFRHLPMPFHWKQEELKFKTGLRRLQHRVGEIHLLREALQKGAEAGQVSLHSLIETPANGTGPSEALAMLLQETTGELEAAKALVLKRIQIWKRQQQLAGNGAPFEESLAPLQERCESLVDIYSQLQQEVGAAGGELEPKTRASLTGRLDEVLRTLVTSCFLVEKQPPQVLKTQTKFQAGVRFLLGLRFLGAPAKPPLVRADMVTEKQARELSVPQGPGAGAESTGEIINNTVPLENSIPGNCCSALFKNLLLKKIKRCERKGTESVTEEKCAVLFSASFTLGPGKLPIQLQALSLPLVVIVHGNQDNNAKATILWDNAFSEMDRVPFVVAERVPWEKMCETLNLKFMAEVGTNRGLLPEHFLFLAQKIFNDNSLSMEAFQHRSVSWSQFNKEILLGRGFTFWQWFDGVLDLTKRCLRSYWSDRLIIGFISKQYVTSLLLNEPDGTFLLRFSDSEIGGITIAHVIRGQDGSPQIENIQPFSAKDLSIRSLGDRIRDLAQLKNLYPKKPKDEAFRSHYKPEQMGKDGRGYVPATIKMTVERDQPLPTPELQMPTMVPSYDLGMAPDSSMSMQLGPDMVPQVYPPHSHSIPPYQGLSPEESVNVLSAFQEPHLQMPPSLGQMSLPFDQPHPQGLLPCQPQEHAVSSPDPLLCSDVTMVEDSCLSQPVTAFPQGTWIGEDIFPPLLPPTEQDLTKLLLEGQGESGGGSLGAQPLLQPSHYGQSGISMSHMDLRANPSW
# Assay: Immunoblotting (Western blot) analysis of STAT6 degradation efficiency of degraders in treated cells
# Format: cell-based
# Method in brief: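 Read-out: fluorescent IRDye 680RD/800CW secondaries imaged on an infrared scanner, with band intensities quantified by densitometry and GAPDH serving as loading control. Samples were RIPA lysates, BCA-normalised, from ~1 million treated cells.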
# [1] = MOLM-16 cells, class symbols, read-out: DC50 S6 MOLM-16
# [2] = L1236 cells, read-out: DC50 S6 L1236
Structure (SMILES),DC50 [1] [µM],"DC50 (MOLM-16 cells, numeric bound, read-out: DC50 S6 MOLM-16) [µM]",DC50 [2] [µM]
"Cc1ncsc1-c1ccc([C@H](C)NC(=O)[C@@H]2C[C@@H](O)CN2C(=O)[C@@H](NC(=O)CCCCNC(=O)COc2ccc3c(c2)CN(C(=O)[C@@H](NC(=O)c2cc4cc(C(F)(F)P(=O)(O)O)ccc4s2)C(C)(C)C)[C@H](C(=O)N2CCO[C@H](c4ccccc4)C2)C3)C(C)(C)C)cc1 [Compound 464, (difluoro(2-(((S)-1-((S)-7-(2-((5-(((S)-1-((2S,4R)-4-hydroxy-2-(((S)-1-(4-(4-methylthiazol-5-yl)phenyl)ethyl)carbamoyl)pyrrolidin-1-yl)-3,3-dimethyl-1-oxobutan-2-yl)amino)-5-oxopentyl)amino)-2-oxoethoxy)-3-((R)-2-phenylmorpholine-4-carbonyl)-3,4-dihydroisoquinolin-2(1H)-yl)-3,3-dimethyl-1-oxobutan-2-yl)carbamoyl)benzo[b]thiophen-5-yl)methyl)phosphonic acid]",> 10,,> 10
"Cc1ncsc1-c1ccc([C@H](C)NC(=O)[C@@H]2C[C@@H](O)CN2C(=O)[C@@H](NC(=O)CCCCCNC(=O)CC(=O)N2CCN(C(=O)[C@@H](NC(=O)c3cc4cc(C(F)(F)P(=O)(O)O)ccc4s3)C(C)(C)C)[C@H](C(=O)N3CCC[C@H](c4ccccc4)C3)C2)C(C)(C)C)cc1 [Compound 456, (difluoro(2-(((S)-1-((S)-4-(3-((6-(((S)-1-((2,4R)-4-hydroxy-2-(((S)-1-(4-(4-methylthiazol-5-yl)phenyl)ethyl)carbamoyl)pyrrolidin-1-yl)-3,3-dimethyl-1-oxobutan-2-yl)amino)-6-oxohexyl)amino)-3-oxopropanoyl)-2-((R)-3-phenylpiperidine-1-carbonyl)piperazin-1-yl)-3,3-dimethyl-1-oxobutan-2-yl)carbamoyl)benzo[b]thiophen-5-yl)methyl)phosphonic acid]",> 10,,> 10
"CC(C)(C)[C@H](NC(=O)c1cc2cc(C(F)(F)P(=O)(O)O)ccc2s1)C(=O)N1Cc2cc(OCC(=O)NCCCC#Cc3cccc4c3C(=O)N(C3CCC(=O)NC3=O)C4=O)ccc2C[C@H]1C(=O)N1CCO[C@H](c2ccccc2)C1 (stereo partly drawn) [Compound 539, ((2-(((2S)-1-((3S)-7-(2-((5-(2-(2,6-dioxopiperidin-3-yl)-1,3-dioxoisoindolin-4-yl)pent-4-yn-1-yl)amino)-2-oxoethoxy)-3-((R)-2-phenylmorpholine-4-carbonyl)-3,4-dihydroisoquinolin-2(1H)-yl)-3,3-dimethyl-1-oxobutan-2-yl)carbamoyl)benzo[b]thiophen-5-yl)difluoromethyl)phosphonic acid]",> 10,,
"CC(C)(C)[C@H](NC(=O)c1cc2cc(C(F)(F)P(=O)(O)O)ccc2s1)C(=O)N1Cc2cc(OCC(=O)NCCCCCCCCCC#Cc3cccc4c3C(=O)N(C3CCC(=O)NC3=O)C4=O)ccc2C[C@H]1C(=O)N1CCO[C@H](c2ccccc2)C1 (stereo partly drawn) [Compound 547, ((2-(((2S)-1-((3S)-7-(2-((11-(2-(2,6-dioxopiperidin-3-yl)-1,3-dioxoisoindolin-4-yl)undec-10-yn-1-yl)amino)-2-oxoethoxy)-3-((R)-2-phenylmorpholine-4-carbonyl)-3,4-dihydroisoquinolin-2(1H)-yl)-3,3-dimethyl-1-oxobutan-2-yl)carbamoyl)benzo[b]thiophen-5-yl)difluoromethyl)phosphonic acid]",> 10,,
"Cc1ncsc1-c1ccc([C@H](C)NC(=O)[C@@H]2C[C@@H](O)CN2C(=O)[C@@H](NC(=O)CCCCCCCNC(=O)CO[C@H]2C[C@@H](C(=O)N3CCC[C@H](c4ccccc4)C3)N(C(=O)[C@@H](NC(=O)c3cc4cc(C(F)(F)P(=O)(O)O)ccc4s3)C(C)(C)C)C2)C(C)(C)C)cc1 [Compound 440, (difluoro(2-(((S)-1-((2S,4S)-4-(2-((8-(((S)-1-((2S,4R)-4-hydroxy-2-(((S)-1-(4-(4-methylthiazol-5-yl)phenyl)ethyl)carbamoyl)pyrrolidin-1-yl)-3,3-dimethyl-1-oxobutan-2-yl)amino)-8-oxooctyl)amino)-2-oxoethoxy)-2-((R)-3-phenylpiperidine-1-carbonyl)pyrrolidin-1-yl)-3,3-dimethyl-1-oxobutan-2-yl)carbamoyl)benzo[b]thiophen-5-yl)methyl)phosphonic acid]",> 10,,> 10
"Cc1ncsc1-c1ccc([C@H](C)NC(=O)[C@@H]2C[C@@H](O)CN2C(=O)[C@@H](NC(=O)CCCCNC(=O)COc2ccc3c(c2)CN(C(=O)[C@@H](NC(=O)c2cc4cc(C(F)(F)P(=O)(O)O)ccc4s2)C(C)(C)C)[C@H](C(=O)N2CCC[C@H](c4ccccc4)C2)C3)C(C)(C)C)cc1 [Compound 473, (difluoro(2-(((S)-1-((S)-7-(2-((5-(((S)-1-((2S,4R)-4-hydroxy-2-(((S)-1-(4-(4-methylthiazol-5-yl)phenyl)ethyl)carbamoyl)pyrrolidin-1-yl)-3,3-dimethyl-1-oxobutan-2-yl)amino)-5-oxopentyl)amino)-2-oxoethoxy)-3-((R)-3-phenylpiperidine-1-carbonyl)-3,4-dihydroisoquinolin-2(1H)-yl)-3,3-dimethyl-1-oxobutan-2-yl)carbamoyl)benzo[b]thiophen-5-yl)methyl)phosphonic acid]",> 10,,

# Now from value to compound, other results behind:
DC50 [1] [µM],"DC50 (MOLM-16 cells, numeric bound, read-out: DC50 S6 MOLM-16) [µM]",Structure (SMILES),DC50 [2] [µM]
> 10,,"CC(C)(C)[C@H](NC(=O)c1cc2cc(C(F)(F)P(=O)(O)O)ccc2s1)C(=O)N1C[C@@H](OCC(=O)NCCCCCCCCCC#Cc2cccc3c2C(=O)N(C2CCC(=O)NC2=O)C3=O)C[C@H]1C(=O)N1CCC[C@H](c2ccccc2)C1 (stereo partly drawn) [Compound 505, ((2-(((2S)-1-((2S,4S)-4-(2-((11-(2-(2,6-dioxopiperidin-3-yl)-1,3-dioxoisoindolin-4-yl)undec-10-yn-1-yl)amino)-2-oxoethoxy)-2-((R)-3-phenylpiperidine-1-carbonyl)pyrrolidin-1-yl)-3,3-dimethyl-1-oxobutan-2-yl)carbamoyl)benzo[b]thiophen-5-yl)difluoromethyl)phosphonic acid]",
> 10,,"CC(C)(C)[C@H](NC(=O)c1cc2cc(C(F)(F)P(=O)(O)O)ccc2s1)C(=O)N1C[C@@H](OCC(=O)NCCCCCC#Cc2cccc3c2C(=O)N(C2CCC(=O)NC2=O)C3=O)C[C@H]1C(=O)N1CCC[C@H](c2ccccc2)C1 (stereo partly drawn) [Compound 501, ((2-(((2S)-1-((2S,4S)-4-(2-((7-(2-(2,6-dioxopiperidin-3-yl)-1,3-dioxoisoindolin-4-yl)hept-6-yn-1-yl)amino)-2-oxoethoxy)-2-((R)-3-phenylpiperidine-1-carbonyl)pyrrolidin-1-yl)-3,3-dimethyl-1-oxobutan-2-yl)carbamoyl)benzo[b]thiophen-5-yl)difluoromethyl)phosphonic acid]",
> 10,,"CC(C)(C)[C@H](NC(=O)c1cc2cc(C(F)(F)P(=O)(O)O)ccc2s1)C(=O)N1C[C@@H](OCC(=O)NCCCCCCCCCC#Cc2ccc3c(c2)C(=O)N(C2CCC(=O)NC2=O)C3=O)C[C@H]1C(=O)N1CCC[C@H](c2ccccc2)C1 (stereo partly drawn) [Compound 506, ((2-(((2S)-1-((2S,4S)-4-(2-((11-(2-(2,6-dioxopiperidin-3-yl)-1,3-dioxoisoindolin-5-yl)undec-10-yn-1-yl)amino)-2-oxoethoxy)-2-((R)-3-phenylpiperidine-1-carbonyl)pyrrolidin-1-yl)-3,3-dimethyl-1-oxobutan-2-yl)carbamoyl)benzo[b]thiophen-5-yl)difluoromethyl)phosphonic acid]",
,> 0.3,"CC(C)(C)[C@H](NC(=O)c1cc2cc(C(F)(F)P(=O)(O)O)ccc2s1)C(=O)N1C[C@@H](OCCCCCNc2cccc3c2CN(C2CCC(=O)NC2=O)C3=O)C[C@H]1C(=O)N1CCO[C@H](c2ccccc2)C1 (stereo partly drawn) [Compound 598, ((2-(((2S)-1-((2S,4S)-4-((5-((2-(2,6-dioxopiperidin-3-yl)-1-oxoisoindolin-4-yl)amino)pentyl)oxy)-2-((R)-2-phenylmorpholine-4-carbonyl)pyrrolidin-1-yl)-3,3-dimethyl-1-oxobutan-2-yl)carbamoyl)benzo[b]thiophen-5-yl)difluoromethyl)phosphonic acid]",
> 10,,"CC(C)(C)[C@H](NC(=O)c1cc2cc(C(F)(F)P(=O)(O)O)ccc2s1)C(=O)N1C[C@@H](OCC(=O)NCCCCCCCCC#Cc2cccc3c2C(=O)N(C2CCC(=O)NC2=O)C3=O)C[C@H]1C(=O)N1CCO[C@H](c2ccccc2)C1 (stereo partly drawn) [Compound 489, ((2-(((2S)-1-((2S,4S)-4-(2-((10-(2-(2,6-dioxopiperidin-3-yl)-1,3-dioxoisoindolin-4-yl)dec-9-yn-1-yl)amino)-2-oxoethoxy)-2-((R)-2-phenylmorpholine-4-carbonyl)pyrrolidin-1-yl)-3,3-dimethyl-1-oxobutan-2-yl)carbamoyl)benzo[b]thiophen-5-yl)difluoromethyl)phosphonic acid]",
